Assays:
Recombinant IKKα = target: T1, Recombinant IKKα (Homo sapiens, UniProt O15111); assay: DELFIA IKKα kinase assay (apparent Ki, Cheng-Prusoff); assay type: biochemical; details: DELFIA assay (first line of an example)
T1 construct: purchased Millipore, Dundee, UK
T1 sequence (O15111 1-745): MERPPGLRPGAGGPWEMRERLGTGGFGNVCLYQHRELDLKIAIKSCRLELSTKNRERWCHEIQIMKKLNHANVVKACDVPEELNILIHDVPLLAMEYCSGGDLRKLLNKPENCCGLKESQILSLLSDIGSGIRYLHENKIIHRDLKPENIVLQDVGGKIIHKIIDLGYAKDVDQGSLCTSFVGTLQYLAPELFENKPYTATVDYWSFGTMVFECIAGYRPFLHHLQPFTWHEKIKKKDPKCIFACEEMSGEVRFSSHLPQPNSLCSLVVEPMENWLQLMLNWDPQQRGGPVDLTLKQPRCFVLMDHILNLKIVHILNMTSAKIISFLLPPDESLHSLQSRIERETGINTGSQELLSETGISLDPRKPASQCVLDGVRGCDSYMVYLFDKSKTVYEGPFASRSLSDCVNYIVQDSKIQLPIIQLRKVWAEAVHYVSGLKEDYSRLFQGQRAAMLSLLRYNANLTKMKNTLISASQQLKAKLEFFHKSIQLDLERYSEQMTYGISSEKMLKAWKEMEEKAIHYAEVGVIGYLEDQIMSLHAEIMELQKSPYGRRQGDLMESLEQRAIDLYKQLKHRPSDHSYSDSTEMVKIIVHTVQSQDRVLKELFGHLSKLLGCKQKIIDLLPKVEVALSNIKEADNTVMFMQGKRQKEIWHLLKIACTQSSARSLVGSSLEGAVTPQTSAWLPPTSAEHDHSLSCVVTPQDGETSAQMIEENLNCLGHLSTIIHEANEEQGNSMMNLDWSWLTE
How it was run: (§1)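 Recombinant IKKα or IKKβ (37 nM) with 0.375 μM biotinylated IκB-α (Ser32) peptide and 40 μM ATP in 40 mM Tris-HCl pH 7.5, 20 mM MgCl2, 60 min at 30° C. Phospho-substrate captured on streptavidin and detected by anti-phospho-IκB-α plus europium anti-mouse IgG time-resolved fluorescence; apparent Ki via Cheng-Prusoff.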

Recombinant IKKβ = target: T2, Recombinant IKKβ (Homo sapiens, UniProt O14920); assay: DELFIA IKKβ kinase assay (apparent Ki, Cheng-Prusoff); assay type: biochemical; details: DELFIA assay (first line of an example)
T2 construct: purchased Millipore, Dundee, UK
T2 sequence (O14920 1-756): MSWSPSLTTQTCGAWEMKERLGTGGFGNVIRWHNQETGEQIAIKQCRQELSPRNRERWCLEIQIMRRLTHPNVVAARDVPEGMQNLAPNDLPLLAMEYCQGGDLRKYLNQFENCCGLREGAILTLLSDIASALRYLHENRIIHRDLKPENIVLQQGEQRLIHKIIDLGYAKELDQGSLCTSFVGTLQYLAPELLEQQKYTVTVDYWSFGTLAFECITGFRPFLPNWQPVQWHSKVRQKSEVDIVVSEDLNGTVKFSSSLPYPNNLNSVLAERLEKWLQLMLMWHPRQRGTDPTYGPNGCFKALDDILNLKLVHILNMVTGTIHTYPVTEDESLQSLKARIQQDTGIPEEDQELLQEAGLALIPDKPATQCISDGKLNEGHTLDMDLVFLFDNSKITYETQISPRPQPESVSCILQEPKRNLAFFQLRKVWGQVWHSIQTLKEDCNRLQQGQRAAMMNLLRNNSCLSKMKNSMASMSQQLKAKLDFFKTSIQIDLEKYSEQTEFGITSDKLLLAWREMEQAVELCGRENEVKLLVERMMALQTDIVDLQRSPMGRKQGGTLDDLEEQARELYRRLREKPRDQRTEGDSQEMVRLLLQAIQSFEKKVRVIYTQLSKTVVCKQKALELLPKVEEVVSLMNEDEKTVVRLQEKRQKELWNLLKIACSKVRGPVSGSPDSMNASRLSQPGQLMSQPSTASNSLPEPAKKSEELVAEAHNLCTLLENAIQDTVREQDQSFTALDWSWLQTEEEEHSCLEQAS
How it was run: as §1

Ki (Recombinant IKKα) [nM] | Ki (Recombinant IKKβ) [nM] | Compound
91 | 1720 | Nc1n[nH]c2ccc(-c3ccnc4[nH]c(CN5CCCCC5)cc34)cc12 [Example 260, 5-(2-(Piperidin-1-ylmethyl)-1H-pyrrolo[2,3-b]pyridine-4-yl)-1H-indazol-3-amine]
49 | 2390 | Nc1n[nH]c2ccc(-c3ccnc4[nH]c(CN5CCC(F)(F)CC5)cc34)cc12 [Example 261, 5-(2-((4,4-Difluoropiperidin-1-yl)methyl)-1H-pyrrolo[2,3-b]pyridine-4-yl)-1H-indazol-3-amine]
22 | 277 | Nc1n[nH]c2ccc(-c3ccnc4[nH]c(CN5CCOCC5)cc34)cc12 [Example 262, 5-(2-(Morpholinomethyl)-1H-pyrrolo[2,3-b]pyridine-4-yl)-1H-indazol-3-amine]
62 | 2430 | CN1CCN(Cc2cc3c(-c4ccc5[nH]nc(N)c5c4)ccnc3[nH]2)CC1 [Example 263, 5-(2-((4-Methylpiperazin-1-yl)methyl)-1H-pyrrolo[2,3-b]pyridine-4-yl)-1H-indazol-3-amine]
91 | 2510 | Nc1n[nH]c2ccc(-c3ccnc4[nH]c(CN5CCCCCC5)cc34)cc12 [Example 265, 5-(2-(Azepan-1-ylmethyl)-1H-pyrrolo[2,3-b]pyridine-4-yl)-1H-indazol-3-amine]
46 | 1800 | CN1CCCN(Cc2cc3c(-c4ccc5[nH]nc(N)c5c4)ccnc3[nH]2)CC1 [Example 266, 5-(2-((4-Methyl-1,4-diazepan-1-yl)methyl)-1H-pyrrolo[2,3-b]pyridin-4-yl)-1H-indazol-3-amine]
53 | 1380 | Nc1n[nH]c2ccc(-c3ccnc4[nH]c(CCN5CCCCC5)cc34)cc12 [Example 267, 5-(2-(2-(Piperidin-1-yl)ethyl)-1H-pyrrolo[2,3-b]pyridine-4-yl)-1H-indazol-3-amine]
11 | 251 | Nc1n[nH]c2ccc(-c3ccnc4[nH]c(CCN5CCOCC5)cc34)cc12 [Example 268, 5-(2-(2-Morpholinoethyl)-1H-pyrrolo[2,3-b]pyridin-4-yl)-1H-indazol-3-amine]
11 | 507 | Nc1n[nH]c2ccc(-c3ccnc4[nH]c(CCCN5CCCCC5)cc34)cc12 [Example 269, 5-(2-(3-(Piperidin-1-yl)propyl)-1H-pyrrolo[2,3-b]pyridin-4-yl)-1H-indazol-3-amine]
11 | 126 | Nc1n[nH]c2ccc(-c3ccnc4[nH]c(CCCN5CCOCC5)cc34)cc12 [Example 271, 5-(2-(3-Morpholinopropyl)-1H-pyrrolo[2,3-b]pyridin-4-yl)-1H-indazlo-3-amine]
5 | 50 | Nc1n[nH]c2ccc(-c3ccnc4[nH]c(CC5CCNCC5)cc34)cc12 [Example 272, 5-(2-(Piperidin-4-ylmethyl)-1H-pyrrolo[2,3-b]pyridin-4-yl)-1H-indazol-3-amine]

Reference: US20250304576A1 (Cancer Research Technology Limited, priority 2022, published 2025)
